Patent US9796711B2, “Substituted pyrazolo[3,4-b]pyridin-6-carboxylic acids and method of use” (AbbVie S.àr.l., priority 2015, dated 2017)

Key:
ΔF508-CFTR [1] = biological target: T1, ΔF508-CFTR (Homo sapiens, UniProt P13569, DEL508-508); test: CFTR cell surface levels using HRP-tagged ΔF508-CFTR expressing CFBE cells, intrinsic corrector capacity; assay type: cell-based; details: HRP-tagged ΔF508-CFTR CFBE41o- cells, compounds alone (intrinsic corrector capacity), 20 hours at 33° C.; for % Activation: positive control 3 μM corrector; for EC50: read-out: EC50
T1 construct: host or cells: CFBE41o-, doxycycline-inducible
T1 sequence (P13569 with tags, fused parts or gaps DEL508-508): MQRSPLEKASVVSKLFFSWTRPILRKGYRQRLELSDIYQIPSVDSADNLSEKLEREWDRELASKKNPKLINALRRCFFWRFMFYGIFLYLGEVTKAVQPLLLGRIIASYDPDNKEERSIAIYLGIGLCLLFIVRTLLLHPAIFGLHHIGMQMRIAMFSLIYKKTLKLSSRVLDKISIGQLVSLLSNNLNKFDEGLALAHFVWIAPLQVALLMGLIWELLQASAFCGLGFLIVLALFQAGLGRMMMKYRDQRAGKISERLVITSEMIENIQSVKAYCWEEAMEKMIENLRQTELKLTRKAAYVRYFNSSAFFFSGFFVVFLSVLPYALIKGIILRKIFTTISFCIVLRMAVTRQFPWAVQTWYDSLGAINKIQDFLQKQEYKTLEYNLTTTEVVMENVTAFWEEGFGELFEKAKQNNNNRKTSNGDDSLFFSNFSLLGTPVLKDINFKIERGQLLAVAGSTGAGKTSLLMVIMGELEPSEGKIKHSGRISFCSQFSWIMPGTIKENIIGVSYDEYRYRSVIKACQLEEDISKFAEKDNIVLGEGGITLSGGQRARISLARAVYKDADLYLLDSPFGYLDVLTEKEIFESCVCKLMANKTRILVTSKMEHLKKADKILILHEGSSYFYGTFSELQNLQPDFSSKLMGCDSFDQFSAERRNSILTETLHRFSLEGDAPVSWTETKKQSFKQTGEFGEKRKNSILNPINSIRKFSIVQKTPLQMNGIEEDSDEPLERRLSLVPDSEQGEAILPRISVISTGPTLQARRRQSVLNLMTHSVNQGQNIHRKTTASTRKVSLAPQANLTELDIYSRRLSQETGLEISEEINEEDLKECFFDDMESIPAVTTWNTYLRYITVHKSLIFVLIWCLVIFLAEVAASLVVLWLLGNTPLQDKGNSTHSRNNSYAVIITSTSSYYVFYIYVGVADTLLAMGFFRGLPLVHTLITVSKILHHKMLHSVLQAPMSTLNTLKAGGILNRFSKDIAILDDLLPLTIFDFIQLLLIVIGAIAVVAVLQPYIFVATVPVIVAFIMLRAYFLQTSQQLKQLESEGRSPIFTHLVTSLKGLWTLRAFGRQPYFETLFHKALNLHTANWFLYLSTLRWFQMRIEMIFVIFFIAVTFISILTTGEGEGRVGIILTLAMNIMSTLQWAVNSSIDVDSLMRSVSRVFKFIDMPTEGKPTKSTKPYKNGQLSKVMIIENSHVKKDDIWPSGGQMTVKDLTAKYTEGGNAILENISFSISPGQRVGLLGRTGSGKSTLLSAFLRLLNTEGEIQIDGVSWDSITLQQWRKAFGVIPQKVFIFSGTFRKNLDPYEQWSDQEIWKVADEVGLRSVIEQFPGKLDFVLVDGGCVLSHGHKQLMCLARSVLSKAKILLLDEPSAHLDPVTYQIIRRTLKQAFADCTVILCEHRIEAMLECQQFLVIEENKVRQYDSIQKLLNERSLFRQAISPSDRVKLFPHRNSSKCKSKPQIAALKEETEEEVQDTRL
Description: Measuring CFTR Cell Surface Levels Using HRP-Tagged AF508-CFTR Expressing CFBE Cells
The HRP-tagged AF508-CFTR cell assay measures the expression of CFTR-ΔF508 at the plasma membrane. CFTR-ΔF508 has a folding defect leading to absence of protein at the plasma membrane. This assay is used to evaluate the capacity of compounds to increase the expression of CFTR-ΔF508 at the plasma membrane. The CFTR-ΔF508 is tagged with HRP (horse radish peroxidase enzyme) within the ECL4 (Extracellular loop 4) of CFTR (Phuan, P.-W. et al. Synergy-based small-molecule screen using a human lung epithelial cell line yields AF508-CFTR correctors that augment VX-809 maximal efficacy. Mol. Pharmacol. 86, 42-51 (2014)). When HRP-tagged AF508-CFTR is present at the plasma membrane, the HRP enzyme activity can be measured. The amount of CFTR-ΔF508 that can be rescued to the plasma membrane is correlated with the amount of functional enzyme that can be measured.
There are several ways to measure the capacity of compounds to rescue CFTR-ΔF508 to the plasma membrane; either compounds are evaluated on their own and the impact on plasma membrane levels is measured or compounds are evaluated in combination with a co-corrector, i.e. a compound that rescues CFTR-ΔF508 to the plasma membrane but rescue can be enhanced by addition of compounds due to a complementary mode of action.
Activity of Compounds for their Intrinsic Corrector Capacity:
For this purpose doxycycline-inducible AF508-CFTR-HRP expressing CFBE4lo-cells (obtained from Gergely Lukacs, McGill University) were maintained in MEM (Gibco; 31095) supplemented with 10% fetal bovine serum (Hyclone; SV30160.03) under puromycin (3 μg/mL) and G418 selection (0.2 mg/mL). For compound testing, cells were seeded at 4000 cells/well in white 384-well plates (Greiner; 781080) in 50 μL medium containing 0.5 μg/mL doxycycline and incubated for 68 hours at 37° C., 5% CO2. On day four, 10 μL test compounds diluted in PBS were added to the plates at a final DMSO concentration of 0.1%. All compound plates contained negative controls (DMSO) and positive controls (3 μM corrector, 3-[(2R,4R)-4-({[1-(2,2-difluoro-1,3-benzodioxol-5-yl)cyclopropyl]carbonyl}amino)-7-methoxy-3,4-dihydro-2H-chromen-2-yl]benzoic acid). Cell plates were incubated at 33° C., 5% CO2 for 20 hours. On day five, the cells were washed five times with phosphate-buffered saline, and HRP activity was assayed by the addition of 50 μL/well of HRP substrate (SuperSignal™ West Pico Chemiluminescent Substrate, Thermo Scientific; 34080). After incubation for 15 minutes in the dark, chemiluminescence was measured using a plate reader (EnVision®, Perkin Elmer). Raw data were normalized to percentage activity values using the equation: 100×(Sample−Negative control)/(Positive control−Negative Control).

ΔF508-CFTR [2] = biological target: T1, ΔF508-CFTR; test: CFTR cell surface levels using HRP-tagged ΔF508-CFTR expressing CFBE cells, in the presence of a co-corrector; assay type: cell-based; details: HRP-tagged ΔF508-CFTR expressing CFBE cells, in the presence of 3 μM co-corrector; for EC50: read-out: EC50
Method in brief: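 Cells were seeded with 0.5 μg/mL doxycycline and held 68 h at 37 °C. Test compounds plus 3 μM co-corrector (final 0.1% DMSO) were then added for 20 h at 33 °C. Washed cells received HRP substrate, and luminescence was normalized between DMSO and 3 μM co-corrector controls.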

Row | SMILES | % Activation (ΔF508-CFTR [1]) | EC50 (ΔF508-CFTR [1]) | % Activation (ΔF508-CFTR [2]) | EC50 (ΔF508-CFTR [2])
1 | COc1ccc(-c2cc(C(=O)O)nc3c2c(C)nn3C2CCCC2)cc1 [compound 3, 1-cyclopentyl-4-(4-methoxyphenyl)-3-methyl-1H-pyrazolo[3,4-b]pyridine-6-carboxylic acid] | 46.83% | 3340 nM |  | 
2 | COc1ccc(-c2cc(C(=O)O)nc3c2c(C)nn3CCC#N)cc1 [compound 4, 1-(2-cyanoethyl)-4-(4-methoxyphenyl)-3-methyl-1H-pyrazolo[3,4-b]pyridine-6-carboxylic acid] | 3.339% | > 10000 nM |  | 
3 | Cc1nn(-c2cc(C(F)(F)F)[nH]n2)c2nc(C(=O)O)cc(-c3ccc(N4CCOCC4)cc3)c12 [compound 7, 3-methyl-4-[4-(morpholin-4-yl)phenyl]-1-[5-(trifluoromethyl)-1H-pyrazol-3-yl]-1H-pyrazolo[3,4-b]pyridine-6-carboxylic acid] | 5.355% | > 10000 nM |  | 
4 | Cc1nn(-c2ccccc2)c2nc(C(=O)O)cc(-c3ccc(N4CCCCC4)cc3)c12 [compound 8, 3-methyl-1-phenyl-4-[4-(piperidin-1-yl)phenyl]-1H-pyrazolo[3,4-b]pyridine-6-carboxylic acid] | 91.055% | 754 nM |  | 
5 | CC(C)c1nn(-c2ccc(F)cc2)c2nc(C(=O)O)cc(N3CCC(N(C)C4COC4)CC3)c12 [compound 751, 1-(4-fluorophenyl)-4-{4-[methyl(oxetan-3-yl)amino]piperidin-1-yl}-3-(propan-2-yl)-1H-pyrazolo[3,4-b]pyridine-6-carboxylic acid] |  |  | 400.2% | 1590 nM
6 | CC(C)c1nn(-c2ccc(F)cc2)c2nc(C(=O)O)cc(N3CCC(C4CCN(C5COC5)CC4)CC3)c12 [compound 752, 1-(4-fluorophenyl)-4-[1′-(oxetan-3-yl)[4,4′-bipiperidin]-1-yl]-3-(propan-2-yl)-1H-pyrazolo[3,4-b]pyridine-6-carboxylic acid] |  |  | 530.9% | 104 nM
7 | CC(C)c1nn(-c2ccc(F)cc2)c2nc(C(=O)O)cc(N3CCC(C(=O)N4CCN(C)CC4)CC3)c12 [compound 755, 1-(4-fluorophenyl)-4-[4-(4-methylpiperazine-1-carbonyl)piperidin-1-yl]-3-(propan-2-yl)-1H-pyrazolo[3,4-b]pyridine-6-carboxylic acid] |  |  | 270.9% | 1670 nM
8 | CC(C)c1nn(-c2ccc(F)cc2)c2nc(C(=O)O)cc(N3CCC(N4CCOCC4)CC3)c12 [compound 756, 1-(4-fluorophenyl)-4-[4-(morpholin-4-yl)piperidin-1-yl]-3-(propan-2-yl)-1H-pyrazolo[3,4-b]pyridine-6-carboxylic acid] |  |  | 446% | 401 nM
9 | CC(C)c1nn(-c2ccc(F)cc2)c2nc(C(=O)O)cc(N3CC(N4CCC(N(C)C5COC5)CC4)C3)c12 [compound 758, 1-(4-fluorophenyl)-4-(3-{4-[methyl(oxetan-3-yl)amino]piperidin-1-yl}azetidin-1-yl)-3-(propan-2-yl)-1H-pyrazolo[3,4-b]pyridine-6-carboxylic acid] |  |  | 139.5% | 812 nM
10 | CC(C)c1nn(-c2ccc(F)cc2)c2nc(C(=O)O)cc(N3CC(N4CCC(N5CCOCC5)CC4)C3)c12 [compound 759, 1-(4-fluorophenyl)-4-{3-[4-(morpholin-4-yl)piperidin-1-yl]azetidin-1-yl}-3-(propan-2-yl)-1H-pyrazolo[3,4-b]pyridine-6-carboxylic acid] |  |  | 207% | 1670 nM
11 | CC(C)c1nn(-c2ccc(F)cc2)c2nc(C(=O)O)cc(N3CCN(CCCN(C)C)CC3)c12 [compound 760, 4-{4-[3-(dimethylamino)propyl]piperazin-1-yl}-1-(4-fluorophenyl)-3-(propan-2-yl)-1H-pyrazolo[3,4-b]pyridine-6-carboxylic acid] |  |  | 131.6% | 5000 nM
12 | CC(C)c1nn(-c2ccc(F)cc2)c2nc(C(=O)O)cc(N3CCC(C)(N4CCN(C)CC4)CC3)c12 [compound 761, 1-(4-fluorophenyl)-4-[4-methyl-4-(4-methylpiperazin-1-yl)piperidin-1-yl]-3-(propan-2-yl)-1H-pyrazolo[3,4-b]pyridine-6-carboxylic acid] |  |  | 284% | 1670 nM
13 | CC(C)c1nn(-c2ccc(F)cc2)c2nc(C(=O)O)cc(N3CCC(OCCN4CCCCC4)CC3)c12 [compound 762, 1-(4-fluorophenyl)-4-{4-[2-(piperidin-1-yl)ethoxy]piperidin-1-yl}-3-(propan-2-yl)-1H-pyrazolo[3,4-b]pyridine-6-carboxylic acid] |  |  | 442.6% | 462 nM
14 | O=C(O)c1cc(N2CCC(CN3CCOCC3)CC2)c2c(C3CCC3)nn(C3CCCCC3)c2n1 [compound 806, 3-cyclobutyl-1-cyclohexyl-4-{4-[(morpholin-4-yl)methyl]piperidin-1-yl}-1H-pyrazolo[3,4-b]pyridine-6-carboxylic acid] |  |  | 435.5% | 225 nM
15 | O=C(O)c1cc(N2CCC(CCN3CCOCC3)CC2)c2c(C3CCC3)nn(C3CCCCC3)c2n1 [compound 807, 3-cyclobutyl-1-cyclohexyl-4-{4-[2-(morpholin-4-yl)ethyl]piperidin-1-yl}-1H-pyrazolo[3,4-b]pyridine-6-carboxylic acid] |  |  | 389.35% | 72.5 nM
16 | O=C(O)c1cc(-c2ccc(CN3CCOCC3)cc2)c2c(OC3CCC3)nn(C3CCCCC3)c2n1 [compound 808, 3-(cyclobutyloxy)-1-cyclohexyl-4-{4-[(morpholin-4-yl)methyl]phenyl}-1H-pyrazolo[3,4-b]pyridine-6-carboxylic acid] |  |  | 297% | 264 nM
17 | COc1cc(-n2nc(C3CCC3)c3c(N4CCC(N5CCOCC5)CC4)cc(C(=O)O)nc32)ccn1 [compound 816, 3-cyclobutyl-1-(2-methoxypyridin-4-yl)-4-[4-(morpholin-4-yl)piperidin-1-yl]-1H-pyrazolo[3,4-b]pyridine-6-carboxylic acid] |  |  | 359.9% | 67.6 nM
18 | O=C(O)c1cc(N2CCC(CN3CCOCC3)CC2)c2c(C3CCC3)nn(-c3ccc(F)cc3)c2n1 [compound 821, 3-cyclobutyl-1-(4-fluorophenyl)-4-{4-[(morpholin-4-yl)methyl]piperidin-1-yl}-1H-pyrazolo[3,4-b]pyridine-6-carboxylic acid] |  |  | 545.15% | 134 nM
19 | C[C@H]1CN(c2cc(C(=O)O)nc3c2c(C2CCC2)nn3C2CCCCC2)CCN1Cc1ccccc1 [compound 881, 4-[(3S)-4-benzyl-3-methylpiperazin-1-yl]-3-cyclobutyl-1-cyclohexyl-1H-pyrazolo[3,4-b]pyridine-6-carboxylic acid] |  |  | 242.75% | 700 nM
20 | C[C@@H]1CN(c2cc(C(=O)O)nc3c2c(C2CCC2)nn3C2CCCCC2)CCN1Cc1ccccc1 [compound 882, 4-[(3R)-4-benzyl-3-methylpiperazin-1-yl]-3-cyclobutyl-1-cyclohexyl-1H-pyrazolo[3,4-b]pyridine-6-carboxylic acid] |  |  | 363.85% | 372 nM
21 | O=C(O)c1cc(N2CCC(CN3CCCC3)CC2)c2c(C3CCC3)nn(-c3ccc(F)cc3)c2n1 [compound 888, 3-cyclobutyl-1-(4-fluorophenyl)-4-{4-[(pyrrolidin-1-yl)methyl]piperidin-1-yl}-1H-pyrazolo[3,4-b]pyridine-6-carboxylic acid] |  |  | 430% | 333 nM
